The source of these data is PubChem BioAssay (NCI).

Holding throughout (assay): NCI anticancer screen, dose series, 48 h
Test [1] concerns HT29 colon.
In test [2] the test system is SF-268 CNS.
For test [3], the system named is SNB-75 CNS.
Test [4] relates to OVCAR-3 ovarian.
The subject of test [5] is RPMI-8226 leukemia.
Test [6] deals with COLO 205 colon.
Test [7] has as its system A549 NSCLC.
For test [8], the system named is CAKI-1 renal.
For test [9], the system named is NCI-H23 lung.
Test [10] has as its system K-562 leukemia.

Where “and” joins values, the source holds several entries; their conditions need not be identical. Equal entries are not always repeated.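 All cell lines were grown in 96-well plates and treated with compound for 48 hours. At the GI50, growth is halved. TGI marks complete inhibition of growth.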

For the compound `COc1cc(OC)c(/C=C/C(=O)c2c(O)cc(OC)c(C3CCN(C)CC3)c2OC)c(OC)c1`, the GI50 in [1] was 421 nM; in test [2], 1630 nM; in [3] it was 1390 nM; in test [4], 1810 nM; in test [5], 1110 nM; in test [6] it was 1800 nM. Also, the GI50 in [7] is 1570 nM; in test [8], 1510 nM; in test [9] it was 1410 nM. In addition, the TGI in [1] was found to be 1.5 µM; in test [2], 3.29 µM; in [3], 2.86 µM; in test [4] it was 3.32 µM; in test [5], 2.83 µM; in [6], 3.23 µM. The TGI in test [7] is 2.97 µM; in [8], 2.93 µM; in test [9], 2.78 µM.
On to `CSc1nc(SC)c2c(C)cn(C3OC(C)C(O)C(O)C3O)c2n1` (centres undefined), for which the TGI in [1], in [2], in test [3], in test [4], in [5] and in test [6] was more than 100 µM in each case. For the same compound, the TGI in test [7] and in [9] was more than 100 µM in each case.
Consider `COC1C(C)OC(OC2CC(C)(O)Cc3cc4c(c(O)c32)C(=O)c2c(O)cc3c(c2C4=O)OC2OC3(C)C(O)C(N(C)C)C2O)C(OC)C1(C)OC` (centres undefined), for which the GI50 is 4.53 nM and 37.9 nM in test [1]; 51.2 nM and 16.1 nM in test [2]; 3.61 nM and 31.5 nM in [3]; 104 nM and 37.6 nM in test [4]; 83.5 nM and 47.6 nM in [7]; 47.6 nM and 21.9 nM in test [8]. The GI50 was 27.2 nM and 63.6 nM in test [10]; 39.5 nM and 21.6 nM in test [9]. The TGI was 1.81 µM and 1.03 µM in [2]; 0.422 µM and 0.452 µM in test [8]; 1.94 µM and 1.51 µM in test [10].
Turning to `NNC(=S)NN/C=C(\C=Nc1ccccc1)[N+](=O)[O-]`, the TGI in test [1], in test [2], in test [3], in [4], in test [5] and in [6] was more than 100 µM in each case. Also, the TGI in test [7], in [8] and in test [9] was more than 100 µM in each case.
Take `COc1cc(CC2C(=O)OCC2[C@@H](OC(C)=O)c2ccc3c(c2)OCO3)c(Br)c(OC)c1OC` (some centres undefined): the TGI in test [1], in test [2], in test [3], in test [4], in test [6] and in test [7] was more than 100 µM in each case. The TGI in test [8] and in test [9] was more than 100 µM each time.
As for `COc1cc(CC(=O)c2cc3c(cc2-c2ccccc2)OCO3)cc(OC)c1OC`, the TGI in [1] is more than 100 µM; in [2], more than 100 µM; in test [3], 35.8 µM; in test [4], more than 100 µM; in test [6], more than 100 µM; in test [7], more than 100 µM. The TGI in test [10] and in [9] was more than 100 µM each time.
Turning to `CN(CC1NCCCC1O)C12CC3CC(CC(C3)C1)C2` (centres undefined), the TGI in [1], in test [2], in [4], in test [5], in test [6] and in [7] was more than 100 µM throughout. Besides, the TGI in test [8], in [10] and in test [9] was more than 100 µM each time.
Regarding `C=CNC(=S)n1nc(-c2ccccc2NC(=O)C(F)(F)F)c(=O)n(C(=S)NC=C)c1=S`, the TGI is 60.1 µM in test [1]; 46 µM in test [2]; 62.8 µM in [3]; 28.8 µM in test [4]; more than 1 µM in [7]; more than 100 µM in test [8]. Moreover, the TGI in [10] and in [9] was more than 100 µM in each case.
For `C[C@H]1CCC2C(CN3CCCCC3)C(=O)OC2[C@]2(C)C(=O)CC(N3CCCCC3)C12O` (some centres undefined), the TGI in test [1] came to 16.4 µM; in test [2] it was 44.8 µM; in [3], 49.4 µM; in test [4], 14.7 µM; in [6], 18.6 µM; in [7], 90.8 µM. For the same compound, the TGI came out at 97.9 µM in test [8], 39.2 µM in test [10] and 25.9 µM in [9].
Turning to `ClCc1ccc(-c2ccc(Cn3cnc4c(Cl)ncnc43)cc2)cc1`, the GI50 was 1130 nM in [2]; 1830 nM in test [4]; 2050 nM in test [5]; 1820 nM in test [6]; 4310 nM in test [7]; 1470 nM in test [8]. In addition, the GI50 in test [10] is 2900 nM; in test [9] it was 1840 nM. The TGI turned out to be 3.51 µM in test [2]; 3.8 µM in test [4]; 4.87 µM in test [5]; 4.27 µM in test [6]; 17.4 µM in test [7]; 2.87 µM in [8]. Moreover, the results for the TGI in [10] and in test [9] were more than 100 µM and 3.65 µM, respectively.
For `C/C(CC(=O)Nc1ccc([N+](=O)[O-])cc1)=N\Nc1ccc([N+](=O)[O-])cc1[N+](=O)[O-]`, the TGI in [1], in test [2], in test [3], in [4], in test [5] and in test [6] was more than 100 µM throughout. The TGI in test [7], in test [10] and in test [9] was more than 100 µM in each case.
Consider `COC(=O)Cc1nn2c(nc1=O)sc1ccc3ccccc3c12`, for which the TGI was more than 100 µM in test [1]; 76.3 µM in test [3]; more than 100 µM in test [4]; more than 100 µM in test [6]; more than 100 µM in [7]; more than 100 µM in test [8]. The TGI in test [10] and in [9] was more than 100 µM throughout.
As for `Cn1c2c(c3ccccc31)CCN(CCCN1CCN(c3ccccc3)CC1)C2=O`, the TGI was 26.7 µM in test [1]; more than 100 µM in test [2]; 36.7 µM in [5]; 37 µM in test [6]; 61 µM in [7]; 30.8 µM in test [8]. Also, the results for the TGI in [10] and in test [9] were 38.3 µM and 46.8 µM, respectively.
